The subject of this assay is MX-1 breast xenograft, nude mice, tumor weight T/C. The experiment in a line: NCI In Vivo Anticancer Drug Screen. Data for tumor model Human Mammary Carcinoma MX-1 Xenograft (intrarenal inoculation) in NU/NU Swiss (nude) mice. To be noted: endpoint: mean tumor weight change, higher = larger tumour. The essentials:
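Mice carrying the implanted tumor receive either test agent or vehicle. Tumor size or survival is then recorded for both groups. Results are stated as the treated-to-control quotient.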

[1] abbreviates: dose: 25.0 mg/kg/injection, schedule: Q01DX010 (sc), vehicle: Klucel (hydroxypropylcellulose) (HPC).
Where [2] appears, read: dose: 100.0 mg/kg/injection, schedule: Q01DX010 (sc), vehicle: Klucel (hydroxypropylcellulose) (HPC).

“And” between values parts separate entries of the source, which are not always exact repeats. Identical values can stand only once. Results filed as inconclusive are left out.

As to `COc1cccc2c1C(=O)c1c(O)c3c(c(O)c1C2=O)C[C@@](O)(C(=O)CO)C[C@@H]3OC1CC(N)C(O)C(C)O1` (some centres not stated), the T/C is 46 % of control (dose: 0.25 mg/kg/injection, schedule: Q01DX010 (ip), vehicle: water); 37 % of control (dose: 0.5 mg/kg/injection, schedule: Q01DX010 (ip), vehicle: water); 159 % of control (dose: 0.75 mg/kg/injection, schedule: Q01DX010 (sc), vehicle: saline); 10 % of control (dose: 1.0 mg/kg/injection, schedule: Q01DX010 (ip), vehicle: water); 84 % of control (dose: 1.5 mg/kg/injection, schedule: Q01DX010 (sc), vehicle: saline); 94 % of control (dose: 3.0 mg/kg/injection, schedule: Q01DX010 (sc), vehicle: saline). For the same molecule, the T/C runs as follows: (dose: 4.0 mg/kg/injection, schedule: Q04DX003 (sc), vehicle: water) 61 % of control; (dose: 6.0 mg/kg/injection, schedule: Q01DX010 (sc), vehicle: saline) 52 % of control; (dose: 6.0 mg/kg/injection, schedule: Q01DX010 (sc), vehicle: water) 69 % of control; (dose: 8.0 mg/kg/injection, schedule: Q04DX003 (sc), vehicle: water) 61 % of control.
Take `Nc1ccn(C2OC(CO)C(O)C2O)c(=O)n1` (configuration not stated): the T/C (dose: 7.5 mg/kg/injection, schedule: Q01DX010 (sc), vehicle: water) was 53 % of control; the T/C (dose: 7.81 mg/kg/injection, schedule: Q01DX010 (sc), vehicle: water) was 62 % of control; the T/C (dose: 15.0 mg/kg/injection, schedule: Q01DX010 (sc), vehicle: water) is 27 % of control; the T/C (dose: 15.63 mg/kg/injection, schedule: Q01DX010 (sc), vehicle: water) is 28 % of control and 30 % of control; the T/C (dose: 30.0 mg/kg/injection, schedule: Q01DX010 (sc), vehicle: water) is 18 % of control; the T/C (dose: 31.25 mg/kg/injection, schedule: Q01DX010 (sc), vehicle: water) is 9 % of control and 12 % of control. The T/C runs as follows: (dose: 60.0 mg/kg/injection, schedule: Q01DX010 (sc), vehicle: water) 9 % of control; (dose: 600.0 mg/kg/injection, schedule: Q04DX003 (sc), vehicle: water) 41 % of control.
Turning to `NC(=O)c1csc(C2OC(CO)C(O)C2O)n1` (configuration not stated), the T/C was 90 % of control (dose: 200.0 mg/kg/injection, schedule: Q04DX003 (sc), vehicle: water); 96 % of control (dose: 400.0 mg/kg/injection, schedule: Q04DX003 (sc), vehicle: water); 118 % of control (dose: 800.0 mg/kg/injection, schedule: Q04DX003 (sc), vehicle: water).
`O=C(Nc1ccc(N=C=S)cc1Cl)c1cc(Cl)cc(Cl)c1O`: the T/C reads like this: (dose: 25.0 mg/kg/injection, schedule: Q04DX003 (sc), vehicle: Klucel (hydroxypropylcellulose) (HPC)) 105 % of control; (dose: 50.0 mg/kg/injection, schedule: Q04DX003 (sc), vehicle: Klucel (hydroxypropylcellulose) (HPC)) 79 % of control; (dose: 100.0 mg/kg/injection, schedule: Q04DX003 (sc), vehicle: Klucel (hydroxypropylcellulose) (HPC)) 117 % of control; (dose: 400.0 mg/kg/injection, schedule: Q04DX003 (sc), vehicle: Klucel (hydroxypropylcellulose) (HPC)) 50 % of control; (dose: 800.0 mg/kg/injection, schedule: Q04DX003 (sc), vehicle: Klucel (hydroxypropylcellulose) (HPC)) 48 % of control.
Regarding `COC1/C=C\C=C(/C)C(=O)NC2=CC(=O)C=C(C2=O)C(OC)C(C)CC(OC)C(OC)C(C)/C=C(/C)C1OC(N)=O` (configuration not stated), the T/C by setting is: (dose: 2.25 mg/kg/injection, schedule: Q04DX003 (sc), vehicle: Klucel (hydroxypropylcellulose) (HPC)) 77 % of control; (dose: 4.5 mg/kg/injection, schedule: Q04DX003 (sc), vehicle: Klucel (hydroxypropylcellulose) (HPC)) 63 % of control; (dose: 9.0 mg/kg/injection, schedule: Q04DX003 (sc), vehicle: Klucel (hydroxypropylcellulose) (HPC)) 52 % of control.
Take `Nc1ccccc1N`: the T/C under setting [1] was 103 % of control; the T/C under setting [2] is 80 % of control and 211 % of control; the T/C (dose: 200.0 mg/kg/injection, schedule: Q01DX010 (sc), vehicle: Klucel (hydroxypropylcellulose) (HPC)) is 34 % of control and 47 % of control.
Take `CNc1nc2c(N)ncnc2n1C1OC(CO)C(O)C1O` (configuration not stated): the T/C (dose: 12.5 mg/kg/injection, schedule: Q04DX003 (sc), vehicle: saline) is 111 % of control; the T/C (dose: 25.0 mg/kg/injection, schedule: Q04DX003 (sc), vehicle: saline) was 92 % of control; the T/C (dose: 50.0 mg/kg/injection, schedule: Q04DX003 (sc), vehicle: saline) is 60 % of control.
Turning to `C=C1C(=O)OCC1C(=O)O` (configuration not stated), the T/C is 74 % of control (dose: 50.0 mg/kg/injection, schedule: Q04DX003 (sc), vehicle: suspension in saline); 94 % of control (dose: 100.0 mg/kg/injection, schedule: Q04DX003 (sc), vehicle: suspension in saline); 50 % of control (dose: 200.0 mg/kg/injection, schedule: Q04DX003 (sc), vehicle: suspension in saline).
`COC(=O)C(N)Cc1ccc(O)c(O)c1` (configuration not stated): the T/C is 106 % of control (dose: 300.0 mg/kg/injection, schedule: Q04DX003 (sc), vehicle: saline); 101 % of control (dose: 600.0 mg/kg/injection, schedule: Q04DX003 (sc), vehicle: saline); 105 % of control (dose: 1200.0 mg/kg/injection, schedule: Q04DX003 (sc), vehicle: saline).
As for `Cc1ccc(S(=O)(=O)OCOS(=O)(=O)c2ccc(C)cc2)cc1`, the T/C was 89 % of control (dose: 300.0 mg/kg/injection, schedule: Q04DX003 (sc), vehicle: Klucel (hydroxypropylcellulose) (HPC)); 98 % of control (dose: 600.0 mg/kg/injection, schedule: Q04DX003 (sc), vehicle: Klucel (hydroxypropylcellulose) (HPC)); 85 % of control (dose: 1200.0 mg/kg/injection, schedule: Q04DX003 (sc), vehicle: Klucel (hydroxypropylcellulose) (HPC)); 63 % of control (dose: 2400.0 mg/kg/injection, schedule: Q04DX003 (sc), vehicle: Klucel (hydroxypropylcellulose) (HPC)).
For `ClCc1ccc2ccccc2n1`, the T/C is 98 % of control (dose: 150.0 mg/kg/injection, schedule: Q04DX003 (sc), vehicle: saline with Tween-80); 98 % of control (dose: 300.0 mg/kg/injection, schedule: Q04DX003 (sc), vehicle: saline with Tween-80); 116 % of control (dose: 1200.0 mg/kg/injection, schedule: Q04DX003 (sc), vehicle: saline with Tween-80).
Turning to `CC(C)(C[NH-])C[NH-].[Cl][Pt+2][Cl]`, the T/C was 117 % of control (dose: 1.5 mg/kg/injection, schedule: Q04DX003 (ip), vehicle: other); 4 % of control (dose: 1.5 mg/kg/injection, schedule: Q04DX003 (ip), vehicle: water); 112 % of control (dose: 3.0 mg/kg/injection, schedule: Q04DX003 (ip), vehicle: other); -58 % of control (dose: 3.0 mg/kg/injection, schedule: Q04DX003 (ip), vehicle: water); -84 % of control (dose: 6.0 mg/kg/injection, schedule: Q04DX003 (ip), vehicle: water).
In the case of `CCOC(=O)c1ccc(NC(=O)Nc2nncs2)cc1`, the T/C by setting is: (dose: 50.0 mg/kg/injection, schedule: Q01DX010 (sc), vehicle: distilled water + Tween-80) 44 % of control; (dose: 100.0 mg/kg/injection, schedule: Q01DX010 (sc), vehicle: saline with Tween-80) 65 % of control; (dose: 200.0 mg/kg/injection, schedule: Q01DX010 (sc), vehicle: saline with Tween-80) 62 % of control; (dose: 400.0 mg/kg/injection, schedule: Q01DX010 (sc), vehicle: saline with Tween-80) 65 % of control; (dose: 800.0 mg/kg/injection, schedule: Q01DX010 (sc), vehicle: distilled water + Tween-80) 120 % of control; (dose: 800.0 mg/kg/injection, schedule: Q01DX010 (sc), vehicle: saline with Tween-80) 37 % of control.
As for `CC(=O)[O][Pb]([O]C(C)=O)([c]1ccccc1)[c]1ccccc1`, the T/C under setting [1] is 105 % of control; the T/C (dose: 50.0 mg/kg/injection, schedule: Q01DX010 (sc), vehicle: Klucel (hydroxypropylcellulose) (HPC)) is 167 % of control; the T/C under setting [2] is 122 % of control; the T/C (dose: 800.0 mg/kg/injection, schedule: Q01DX010 (sc), vehicle: Klucel (hydroxypropylcellulose) (HPC)) is 51 % of control.
With `CC1=C(C)C(=O)O[C@@H]([C@](C)(O)[C@]2(O)CC[C@@]3(O)[C@@H]4C[C@H]5O[C@]56CC=CC(=O)[C@]6(C)[C@H]4CC[C@]23C)C1`, the T/C (dose: 75.0 mg/kg/injection, schedule: Q04DX003 (sc), vehicle: suspension in saline) is 112 % of control; the T/C (dose: 150.0 mg/kg/injection, schedule: Q04DX003 (sc), vehicle: suspension in saline) is 83 % of control; the T/C (dose: 300.0 mg/kg/injection, schedule: Q04DX003 (sc), vehicle: suspension in saline) was 83 % of control; the T/C (dose: 600.0 mg/kg/injection, schedule: Q04DX003 (sc), vehicle: suspension in saline) was 95 % of control.

The values are drawn from PubChem BioAssay AID296 (DTP/NCI, 2004).
